In ChEMBL document CHEMBL2321833, “Design and optimization of selective protein kinase C θ (PKCθ) inhibitors for the treatment of autoimmune diseases” (J Med Chem, 2013):

Key:
[1] = molecular target: Protein kinase C alpha type (Homo sapiens, UniProt P17252); experiment: Inhibition of PKC alpha (unknown origin) using RRRRRKGSFKRKA as substrate after 15 mins by spectrophotometry in presence of ATP
[2] = molecular target: T1, Protein kinase C theta type (Homo sapiens, UniProt Q04759); experiment: Inhibition of PKC-theta in human PBMC cells assessed as inhibition of IL-2 after 24 hrs by bead-based FLISA assay; type: cell-based
T1 sequence (Q04759 whole entry): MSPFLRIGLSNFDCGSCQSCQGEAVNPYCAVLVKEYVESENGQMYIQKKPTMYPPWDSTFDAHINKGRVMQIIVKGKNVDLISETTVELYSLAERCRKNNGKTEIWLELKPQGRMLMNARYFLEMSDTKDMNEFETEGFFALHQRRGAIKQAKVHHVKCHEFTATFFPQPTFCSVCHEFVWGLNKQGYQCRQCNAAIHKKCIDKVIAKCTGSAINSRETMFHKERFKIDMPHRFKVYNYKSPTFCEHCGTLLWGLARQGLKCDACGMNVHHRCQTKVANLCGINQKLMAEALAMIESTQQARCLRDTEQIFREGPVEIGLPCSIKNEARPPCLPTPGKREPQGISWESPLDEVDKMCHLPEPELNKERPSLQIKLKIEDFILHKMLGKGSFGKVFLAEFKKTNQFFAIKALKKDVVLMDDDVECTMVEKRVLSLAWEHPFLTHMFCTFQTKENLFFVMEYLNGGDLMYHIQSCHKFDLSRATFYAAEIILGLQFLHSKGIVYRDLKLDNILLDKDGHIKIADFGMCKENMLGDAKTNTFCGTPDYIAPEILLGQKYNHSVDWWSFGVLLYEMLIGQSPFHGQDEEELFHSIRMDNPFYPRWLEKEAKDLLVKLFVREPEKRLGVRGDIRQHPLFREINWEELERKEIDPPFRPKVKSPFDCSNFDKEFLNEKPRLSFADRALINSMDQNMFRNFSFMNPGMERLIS

[3] = molecular target: T1, Protein kinase C theta type; experiment: Inhibition of full-length recombinant PKC theta (unknown origin) using ERMRPRKRQGSVRRRV as substrate after 60 mins by scintillation counting analysis in presence of [gamma-33P]ATP
[4] = molecular target: Protein kinase C delta type (Homo sapiens, UniProt Q05655); experiment: Inhibition of PKC delta (unknown origin) using ERMRPRKRQGSVRRRV as substrate after 15 mins by spectrophotometry in presence of ATP
Chain of Protein kinase C delta type (Q05655 whole entry): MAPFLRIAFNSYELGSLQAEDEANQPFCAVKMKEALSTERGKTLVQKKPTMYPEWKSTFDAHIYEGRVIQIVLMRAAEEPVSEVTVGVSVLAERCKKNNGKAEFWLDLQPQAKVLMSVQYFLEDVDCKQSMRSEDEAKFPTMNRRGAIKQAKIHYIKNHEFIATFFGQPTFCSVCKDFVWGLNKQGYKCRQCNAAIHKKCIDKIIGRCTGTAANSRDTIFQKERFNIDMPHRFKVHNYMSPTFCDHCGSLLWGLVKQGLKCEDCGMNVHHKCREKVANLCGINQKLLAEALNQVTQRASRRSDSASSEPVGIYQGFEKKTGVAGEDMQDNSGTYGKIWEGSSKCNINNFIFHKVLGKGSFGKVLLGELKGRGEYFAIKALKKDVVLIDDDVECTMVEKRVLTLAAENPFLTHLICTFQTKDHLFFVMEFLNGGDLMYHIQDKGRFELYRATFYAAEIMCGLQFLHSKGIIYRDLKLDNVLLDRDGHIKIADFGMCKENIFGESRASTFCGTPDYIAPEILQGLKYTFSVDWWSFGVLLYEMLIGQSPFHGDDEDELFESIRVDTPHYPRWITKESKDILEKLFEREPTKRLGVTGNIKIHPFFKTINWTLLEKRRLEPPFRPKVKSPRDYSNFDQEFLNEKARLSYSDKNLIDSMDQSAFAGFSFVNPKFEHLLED

[5] = Oral bioavailability in rat at 10 mg/kg; type: ADME, organism-based; conditions: in vivo
[6] = Half life in rat at 3 mg/kg, iv and 10 mg/kg, po; type: ADME, organism-based; conditions: in vivo
[7] = Clearance in rat at 3 mg/kg, iv and 10 mg/kg, po; type: ADME, organism-based; conditions: in vivo
Blood = experiment: Inhibition of PKC theta in human whole blood assessed as IL-2 level after 1 hr by ELISA; type: functional, tissue-based
[8] = molecular target: Tyrosine-protein kinase Fyn (Homo sapiens, UniProt P06241); experiment: Inhibition of Fyn (unknown origin)
Chain of Tyrosine-protein kinase Fyn (P06241 whole entry): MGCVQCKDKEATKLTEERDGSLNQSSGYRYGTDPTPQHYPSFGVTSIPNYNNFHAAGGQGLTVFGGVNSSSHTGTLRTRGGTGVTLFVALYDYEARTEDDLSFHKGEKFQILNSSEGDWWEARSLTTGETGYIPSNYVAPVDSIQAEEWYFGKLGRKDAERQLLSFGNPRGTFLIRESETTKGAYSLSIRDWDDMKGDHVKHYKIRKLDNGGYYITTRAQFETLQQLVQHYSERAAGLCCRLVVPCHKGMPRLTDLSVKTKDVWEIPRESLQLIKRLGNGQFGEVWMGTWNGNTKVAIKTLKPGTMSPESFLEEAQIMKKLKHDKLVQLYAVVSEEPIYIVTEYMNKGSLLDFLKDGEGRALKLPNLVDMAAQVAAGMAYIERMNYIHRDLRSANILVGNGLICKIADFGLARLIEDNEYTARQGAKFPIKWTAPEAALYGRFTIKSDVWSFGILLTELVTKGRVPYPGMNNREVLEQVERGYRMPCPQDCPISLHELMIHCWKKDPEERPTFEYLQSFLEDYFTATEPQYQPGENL

[9] = molecular target: Tyrosine-protein kinase Lck (Homo sapiens, UniProt P06239); experiment: Inhibition of Lck (unknown origin)
Chain of Tyrosine-protein kinase Lck (P06239 whole entry): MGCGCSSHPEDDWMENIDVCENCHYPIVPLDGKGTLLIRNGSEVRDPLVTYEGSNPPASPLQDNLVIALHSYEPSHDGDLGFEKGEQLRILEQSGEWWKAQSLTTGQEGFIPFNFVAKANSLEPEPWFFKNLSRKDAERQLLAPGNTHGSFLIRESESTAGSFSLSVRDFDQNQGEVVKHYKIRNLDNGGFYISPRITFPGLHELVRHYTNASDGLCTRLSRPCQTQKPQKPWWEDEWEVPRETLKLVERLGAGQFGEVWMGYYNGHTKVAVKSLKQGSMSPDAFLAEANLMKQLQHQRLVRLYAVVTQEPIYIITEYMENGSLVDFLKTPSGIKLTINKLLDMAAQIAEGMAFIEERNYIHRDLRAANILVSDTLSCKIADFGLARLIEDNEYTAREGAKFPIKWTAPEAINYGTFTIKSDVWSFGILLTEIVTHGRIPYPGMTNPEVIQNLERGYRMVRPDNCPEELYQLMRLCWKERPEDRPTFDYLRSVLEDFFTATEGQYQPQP

[10] = molecular target: Mitogen-activated protein kinase 3 (Homo sapiens, UniProt P27361); experiment: Inhibition of Erk-1 (unknown origin)
[11] = molecular target: Tyrosine-protein kinase Lyn (Homo sapiens, UniProt P07948); experiment: Inhibition of Lyn (unknown origin)
Chain of Tyrosine-protein kinase Lyn (P07948 whole entry): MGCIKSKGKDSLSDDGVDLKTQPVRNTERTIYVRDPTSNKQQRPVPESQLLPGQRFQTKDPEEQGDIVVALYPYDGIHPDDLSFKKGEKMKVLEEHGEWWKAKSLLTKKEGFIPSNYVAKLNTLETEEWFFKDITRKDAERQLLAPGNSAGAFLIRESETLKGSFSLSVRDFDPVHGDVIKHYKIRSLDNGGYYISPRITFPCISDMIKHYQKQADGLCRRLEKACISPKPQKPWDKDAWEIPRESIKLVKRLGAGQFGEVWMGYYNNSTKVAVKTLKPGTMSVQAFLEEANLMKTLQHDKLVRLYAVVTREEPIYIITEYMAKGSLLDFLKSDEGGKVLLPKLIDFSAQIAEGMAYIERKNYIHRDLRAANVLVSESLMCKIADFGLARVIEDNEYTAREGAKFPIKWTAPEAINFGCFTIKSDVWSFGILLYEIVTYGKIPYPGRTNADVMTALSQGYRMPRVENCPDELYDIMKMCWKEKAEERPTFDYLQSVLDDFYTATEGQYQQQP

[12] = molecular target: T2, Protein kinase C epsilon type (Homo sapiens, UniProt Q02156); experiment: Inhibition of PKC epsilon (unknown origin)
T2 sequence (Q02156 whole entry): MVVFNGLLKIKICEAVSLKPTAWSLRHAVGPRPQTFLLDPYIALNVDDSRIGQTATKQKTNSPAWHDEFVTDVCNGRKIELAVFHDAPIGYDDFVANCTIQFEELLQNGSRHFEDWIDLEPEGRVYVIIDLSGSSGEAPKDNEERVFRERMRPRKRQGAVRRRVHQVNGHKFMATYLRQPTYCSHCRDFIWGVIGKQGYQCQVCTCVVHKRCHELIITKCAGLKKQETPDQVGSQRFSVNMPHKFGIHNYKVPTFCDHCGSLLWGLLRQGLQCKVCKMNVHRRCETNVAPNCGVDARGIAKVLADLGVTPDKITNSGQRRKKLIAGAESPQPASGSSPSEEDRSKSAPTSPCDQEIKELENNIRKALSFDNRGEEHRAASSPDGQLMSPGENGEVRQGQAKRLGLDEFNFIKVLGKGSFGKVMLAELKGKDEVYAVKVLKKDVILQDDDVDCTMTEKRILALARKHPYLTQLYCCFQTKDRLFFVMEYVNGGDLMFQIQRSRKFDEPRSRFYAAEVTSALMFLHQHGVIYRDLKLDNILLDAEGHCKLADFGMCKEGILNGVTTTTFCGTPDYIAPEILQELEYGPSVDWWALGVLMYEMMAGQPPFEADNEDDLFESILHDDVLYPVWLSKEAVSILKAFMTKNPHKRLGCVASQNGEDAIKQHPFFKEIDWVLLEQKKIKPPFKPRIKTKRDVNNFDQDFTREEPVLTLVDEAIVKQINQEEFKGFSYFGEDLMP

[13] = molecular target: T3, Serine/threonine-protein kinase D1 (Homo sapiens, UniProt Q15139); experiment: Inhibition of PKC mu (unknown origin)
T3 sequence (Q15139 whole entry): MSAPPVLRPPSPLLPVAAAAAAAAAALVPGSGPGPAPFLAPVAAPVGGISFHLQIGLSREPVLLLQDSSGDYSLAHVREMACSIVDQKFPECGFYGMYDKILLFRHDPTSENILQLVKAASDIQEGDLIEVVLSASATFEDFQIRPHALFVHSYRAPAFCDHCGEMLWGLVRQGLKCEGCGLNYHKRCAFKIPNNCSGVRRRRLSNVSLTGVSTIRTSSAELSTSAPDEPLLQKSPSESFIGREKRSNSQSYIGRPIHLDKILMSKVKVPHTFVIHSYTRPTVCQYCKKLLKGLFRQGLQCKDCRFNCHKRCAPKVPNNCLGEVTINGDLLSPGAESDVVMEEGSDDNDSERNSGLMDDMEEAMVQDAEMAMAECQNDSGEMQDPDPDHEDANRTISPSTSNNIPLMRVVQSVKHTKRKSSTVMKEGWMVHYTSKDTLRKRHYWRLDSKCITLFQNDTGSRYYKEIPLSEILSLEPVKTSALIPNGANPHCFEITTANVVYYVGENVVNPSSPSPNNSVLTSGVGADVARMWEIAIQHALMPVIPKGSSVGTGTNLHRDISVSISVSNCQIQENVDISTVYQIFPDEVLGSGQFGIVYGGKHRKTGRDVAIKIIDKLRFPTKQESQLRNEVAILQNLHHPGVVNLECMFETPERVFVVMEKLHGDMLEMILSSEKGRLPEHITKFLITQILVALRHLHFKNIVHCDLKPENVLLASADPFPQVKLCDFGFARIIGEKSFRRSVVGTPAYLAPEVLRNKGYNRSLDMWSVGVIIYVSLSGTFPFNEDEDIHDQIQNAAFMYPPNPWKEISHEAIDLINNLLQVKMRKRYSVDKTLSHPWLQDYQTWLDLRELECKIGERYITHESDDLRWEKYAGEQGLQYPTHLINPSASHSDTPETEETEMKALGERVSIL

[14] = molecular target: T4, Protein kinase C beta type (Homo sapiens, UniProt P05771); experiment: Inhibition of PKC beta2 (unknown origin)
T4 sequence (P05771 whole entry): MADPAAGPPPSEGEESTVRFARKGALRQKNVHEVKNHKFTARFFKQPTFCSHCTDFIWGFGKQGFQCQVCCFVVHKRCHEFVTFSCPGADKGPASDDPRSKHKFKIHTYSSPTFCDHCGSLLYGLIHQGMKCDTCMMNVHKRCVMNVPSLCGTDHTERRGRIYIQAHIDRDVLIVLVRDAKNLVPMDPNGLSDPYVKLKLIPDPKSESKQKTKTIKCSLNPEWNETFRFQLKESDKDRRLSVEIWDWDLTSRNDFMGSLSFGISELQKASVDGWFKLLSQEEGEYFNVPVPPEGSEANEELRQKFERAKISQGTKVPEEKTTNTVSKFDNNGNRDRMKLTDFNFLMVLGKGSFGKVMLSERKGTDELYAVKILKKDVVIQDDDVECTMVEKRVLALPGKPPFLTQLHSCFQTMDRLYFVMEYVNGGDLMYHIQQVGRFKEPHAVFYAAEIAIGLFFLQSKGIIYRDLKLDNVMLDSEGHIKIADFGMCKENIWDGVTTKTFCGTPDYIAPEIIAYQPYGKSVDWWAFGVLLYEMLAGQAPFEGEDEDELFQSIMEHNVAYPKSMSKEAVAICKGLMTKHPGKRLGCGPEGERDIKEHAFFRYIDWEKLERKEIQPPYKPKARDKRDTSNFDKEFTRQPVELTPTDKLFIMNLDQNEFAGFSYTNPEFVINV

[15] = molecular target: T5, Tyrosine-protein kinase ZAP-70 (Homo sapiens, UniProt P43403); experiment: Inhibition of Zap70 (unknown origin)
T5 sequence (P43403 whole entry): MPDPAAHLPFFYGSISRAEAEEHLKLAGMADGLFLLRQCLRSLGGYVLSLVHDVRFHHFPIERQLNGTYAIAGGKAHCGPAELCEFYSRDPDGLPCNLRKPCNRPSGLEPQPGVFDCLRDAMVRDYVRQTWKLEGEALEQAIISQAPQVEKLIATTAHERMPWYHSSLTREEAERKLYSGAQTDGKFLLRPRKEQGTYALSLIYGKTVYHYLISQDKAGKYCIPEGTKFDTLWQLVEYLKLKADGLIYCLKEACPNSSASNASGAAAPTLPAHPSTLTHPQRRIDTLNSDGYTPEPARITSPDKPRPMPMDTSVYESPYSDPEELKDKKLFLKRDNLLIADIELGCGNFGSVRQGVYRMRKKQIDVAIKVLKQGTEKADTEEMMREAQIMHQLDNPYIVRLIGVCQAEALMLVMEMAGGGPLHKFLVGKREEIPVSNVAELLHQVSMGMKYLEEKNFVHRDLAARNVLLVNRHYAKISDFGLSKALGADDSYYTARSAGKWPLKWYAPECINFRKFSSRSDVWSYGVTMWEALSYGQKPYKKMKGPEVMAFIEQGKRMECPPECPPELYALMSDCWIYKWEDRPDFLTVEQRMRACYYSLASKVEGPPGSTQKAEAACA

[16] = molecular target: T6, Protein kinase C zeta type (Homo sapiens, UniProt Q05513); experiment: Inhibition of PKC zeta (unknown origin)
T6 sequence (Q05513 whole entry): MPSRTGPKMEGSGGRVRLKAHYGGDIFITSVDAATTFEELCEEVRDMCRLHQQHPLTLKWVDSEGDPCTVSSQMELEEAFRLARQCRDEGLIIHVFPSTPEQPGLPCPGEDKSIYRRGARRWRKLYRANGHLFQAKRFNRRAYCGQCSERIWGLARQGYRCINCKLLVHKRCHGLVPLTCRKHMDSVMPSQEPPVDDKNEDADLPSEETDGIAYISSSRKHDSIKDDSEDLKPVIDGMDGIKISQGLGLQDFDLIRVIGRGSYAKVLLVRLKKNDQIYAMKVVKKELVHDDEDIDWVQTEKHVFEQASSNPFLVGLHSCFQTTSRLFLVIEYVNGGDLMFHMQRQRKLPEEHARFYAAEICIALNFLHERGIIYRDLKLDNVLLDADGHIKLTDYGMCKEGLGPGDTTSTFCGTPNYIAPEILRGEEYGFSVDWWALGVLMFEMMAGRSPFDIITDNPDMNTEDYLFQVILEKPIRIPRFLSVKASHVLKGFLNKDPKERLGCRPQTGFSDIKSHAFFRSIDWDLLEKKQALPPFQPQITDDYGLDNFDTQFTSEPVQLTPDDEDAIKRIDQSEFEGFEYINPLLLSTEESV

[17] = molecular target: Protein kinase C eta type (Homo sapiens, UniProt P24723); experiment: Inhibition of PKC eta (unknown origin)
[18] = Cmax in Balb/c mouse at 25 mg/kg, po; type: ADME, organism-based; design: dose 25 mg/kg, route oral; conditions: in vivo
[19] = molecular target: RAF proto-oncogene serine/threonine-protein kinase (Homo sapiens, UniProt P04049); experiment: Inhibition of c-Raf (unknown origin)
[20] = molecular target: T4, Protein kinase C beta type; experiment: Inhibition of PKC beta1 (unknown origin)
[21] = molecular target: T7, Tyrosine-protein kinase ITK/TSK (Homo sapiens, UniProt Q08881); experiment: Inhibition of Itk (unknown origin)
T7 sequence (Q08881 whole entry): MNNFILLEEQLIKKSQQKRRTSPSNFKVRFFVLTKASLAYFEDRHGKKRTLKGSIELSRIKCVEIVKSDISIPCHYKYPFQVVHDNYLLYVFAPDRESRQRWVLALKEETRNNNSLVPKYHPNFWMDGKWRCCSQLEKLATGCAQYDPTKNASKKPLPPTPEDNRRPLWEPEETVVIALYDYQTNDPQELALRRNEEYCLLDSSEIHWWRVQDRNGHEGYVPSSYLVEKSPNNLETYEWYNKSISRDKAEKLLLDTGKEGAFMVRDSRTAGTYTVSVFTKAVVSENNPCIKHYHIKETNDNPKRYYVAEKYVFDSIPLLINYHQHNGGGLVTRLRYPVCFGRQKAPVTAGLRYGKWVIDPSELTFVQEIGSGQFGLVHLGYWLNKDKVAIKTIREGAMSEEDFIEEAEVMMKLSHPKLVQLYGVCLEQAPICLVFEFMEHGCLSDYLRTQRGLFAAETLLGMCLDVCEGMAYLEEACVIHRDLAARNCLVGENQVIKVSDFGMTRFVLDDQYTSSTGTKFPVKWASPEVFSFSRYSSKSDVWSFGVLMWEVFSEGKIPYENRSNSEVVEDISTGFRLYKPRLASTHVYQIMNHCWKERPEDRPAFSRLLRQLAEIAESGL

[22] = molecular target: Protein kinase C gamma type (Homo sapiens, UniProt P05129); experiment: Inhibition of PKC gamma (unknown origin)

| Compound | Ki [1] [nM] | IC50 [2] [nM] | Ki [3] [nM] | Ki [4] [nM] | other results |
| --- | --- | --- | --- | --- | --- |
| Nc1ncccc1C(=O)c1cccc(N2CCCNCC2)n1 | 428 |  |  |  |  |
| CC(C)[C@@](C)(O)[C@@H]1CN(c2nc(-c3n[nH]c4ncccc34)c(F)cc2O)CCN1 | 56 | 4 | 0.1 | < 10 |  |
| CC(C)[C@@](C)(O)[C@@H]1CN(c2nc(-c3n[nH]c4ncccc34)c(F)cc2C#N)CCN1 | > 1250 |  |  |  |  |
| CC(C)[C@@](C)(O)[C@@H]1CN(c2nc(-c3n[nH]c4ncccc34)c(F)cc2CO)CCN1 | 205 | 1 | 0.1 | < 10 |  |
| CC(C)[C@@](C)(O)[C@@H]1CN(c2nc(-c3n[nH]c4ncccc34)c(F)cc2F)CCN1 | 198 | 2 | 0.1 | 18 | bioavailability [5]: 30%; half-life [6]: 1.7 h; clearance [7]: 9.5 mL/min/kg; IC50 (Blood): 80 nM |
| CC(C)[C@@](C)(O)[C@@H]1CN(c2nc(-c3n[nH]c4ncccc34)c(F)cc2Cl)CCN1 | 356 | 11 | 0.08 | 16 | Ki [8]: > 1000 nM; bioavailability [5]: 65%; Ki [9]: > 1000 nM; Ki [10]: > 1000 nM; Ki [11]: > 1000 nM; Ki [12]: 1 nM; Ki [13]: 2420 nM; Ki [14]: 393 nM; half-life [6]: 4.7 h; clearance [7]: 7 mL/min/kg; Ki [15]: > 1000 nM; Ki [16]: > 5000 nM; Ki [17]: 3.5 nM; IC50 (Blood): 70 nM; Cmax [18]: 700 ng/mL; Ki [19]: > 1000 nM; Ki [20]: 15 nM; Ki [21]: > 1000 nM; Ki [22]: 725 nM |
| CC(C)C[C@H]1CN(c2ccc(F)c(-c3n[nH]c4ncccc34)n2)CCN1 |  |  |  | 358 |  |
| CC(C)C[C@H]1CN(c2ccc(F)c(-c3n[nH]c4ncccc34)n2)C[C@@H](C)N1 |  |  | 5 | 130 |  |
| CC(C)C[C@H]1CN(c2ccc(F)c(-c3n[nH]c4ncccc34)n2)C[C@H](C)N1 |  |  | > 700 | > 1250 |  |
| CC(C)[C@@](C)(O)[C@@H]1CN(c2ccc(F)c(-c3n[nH]c4ncccc34)n2)CCN1 | 549 |  |  | 57 | bioavailability [5]: 36%; half-life [6]: 2.6 h; clearance [7]: 39 mL/min/kg; IC50 (Blood): 200 nM |
| CC(C)[C@](C)(O)[C@H]1CN(c2ccc(F)c(-c3n[nH]c4ncccc34)n2)CCN1 |  |  |  | > 1250 |  |
| CC(C)[C@](C)(O)[C@@H]1CN(c2ccc(F)c(-c3n[nH]c4ncccc34)n2)CCN1 |  |  |  | 120 |  |
| CC(C)[C@@](C)(O)[C@H]1CN(c2ccc(F)c(-c3n[nH]c4ncccc34)n2)CCN1 |  |  |  | > 1250 |  |
| CC(C)[C@@](C)(O)[C@@H]1CN(c2ccc(Cl)c(-c3n[nH]c4ncccc34)n2)CCN1 | 1240 | 170 | 21 | 547 |  |
| c1cc(-c2n[nH]c3ncccc23)nc(N2CCNCC2)c1 | 1230 |  |  |  |  |
| Fc1ccc(N2CCNCC2)nc1-c1n[nH]c2ncccc12 | > 1250 |  | 60 | 722 |  |
| CC(C)C[C@@H]1CN(c2ccc(F)c(-c3n[nH]c4ncccc34)n2)CCN1 |  |  |  | 792 |  |
| CC(C)[C@@](C)(O)[C@@H]1CN(c2ccc(C(F)(F)F)c(-c3n[nH]c4ncccc34)n2)CCN1 (racemic) | > 1250 | 420 | 20 | 957 |  |
